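Cultured in 96-well plates, cells were exposed to test compound for 48 hours across five concentrations. Abbreviation: GI50, concentration required for 50% inhibition of growth. TGI: concentration producing complete growth inhibition.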
Assays:
Experiment in all cases: DTP human tumour cell line panel, 48 h
COLO 205 colon = system: COLO 205 colon
A549 NSCLC = system: A549 NSCLC
CAKI-1 renal = system: CAKI-1 renal
SF-295 CNS = system: SF-295 CNS
UACC-62 melanoma = system: UACC-62 melanoma
DU-145 prostate = system: DU-145 prostate
KM12 colon = system: KM12 colon
SK-MEL-28 melanoma = system: SK-MEL-28 melanoma
HT29 colon = system: HT29 colon
OVCAR-4 ovarian = system: OVCAR-4 ovarian
A498 renal = system: A498 renal
EKVX NSCLC = system: EKVX NSCLC
SN12C renal = system: SN12C renal
SF-539 CNS = system: SF-539 CNS
SNB-19 CNS = system: SNB-19 CNS
786-0 renal = system: 786-0 renal
SW-620 colon = system: SW-620 colon
HCC-2998 colon = system: HCC-2998 colon
MDA-MB-435 = system: MDA-MB-435
HCT-116 colon = system: HCT-116 colon
HCT-15 colon = system: HCT-15 colon
MCF7 breast = system: MCF7 breast
LOX IMVI melanoma = system: LOX IMVI melanoma
T-47D breast = system: T-47D breast
SK-OV-3 ovarian = system: SK-OV-3 ovarian
M14 melanoma = system: M14 melanoma
UACC-257 melanoma = system: UACC-257 melanoma
HOP-92 NSCLC = system: HOP-92 NSCLC
TK-10 renal = system: TK-10 renal
NCI-H460 lung = system: NCI-H460 lung
OVCAR-8 ovarian = system: OVCAR-8 ovarian
HS 578T breast = system: HS 578T breast
SNB-75 CNS = system: SNB-75 CNS
NCI/ADR-RES ovarian = system: NCI/ADR-RES ovarian
NCI-H226 lung = system: NCI-H226 lung
OVCAR-5 ovarian = system: OVCAR-5 ovarian
SK-MEL-5 melanoma = system: SK-MEL-5 melanoma
U251 CNS = system: U251 CNS
HL-60(TB) leukemia = system: HL-60(TB) leukemia
BT-549 breast = system: BT-549 breast
ACHN renal = system: ACHN renal
UO-31 renal = system: UO-31 renal
MDA-MB-231 breast = system: MDA-MB-231 breast
NCI-H522 lung = system: NCI-H522 lung
HOP-62 NSCLC = system: HOP-62 NSCLC
IGROV1 ovarian = system: IGROV1 ovarian
SK-MEL-2 melanoma = system: SK-MEL-2 melanoma

Which results are given for `Nc1nc(N)c2c(n1)NC(c1ccccc1)CC(c1ccc(Nc3nc(NCCO)nc(Nc4ccc(Cl)cc4)n3)cc1)=N2` (centres undefined)?
GI50 (COLO 205 colon): 1790 nM; TGI (COLO 205 colon): 3310 nM; GI50 (A549 NSCLC): 2840 nM; TGI (A549 NSCLC): 9180 nM; GI50 (CAKI-1 renal): 2300 nM; TGI (CAKI-1 renal): 5790 nM; GI50 (SF-295 CNS): 1570 nM; TGI (SF-295 CNS): 2970 nM; GI50 (UACC-62 melanoma): 1840 nM; TGI (UACC-62 melanoma): 3320 nM; GI50 (DU-145 prostate): 1800 nM; TGI (DU-145 prostate): 3380 nM; GI50 (KM12 colon): 1900 nM; TGI (KM12 colon): 3540 nM; GI50 (SK-MEL-28 melanoma): 1730 nM; TGI (SK-MEL-28 melanoma): 3120 nM; GI50 (HT29 colon): 1770 nM; TGI (HT29 colon): 3330 nM; GI50 (OVCAR-4 ovarian): 1720 nM; TGI (OVCAR-4 ovarian): 3760 nM; GI50 (A498 renal): 1540 nM; TGI (A498 renal): 3030 nM; GI50 (EKVX NSCLC): 1640 nM; TGI (EKVX NSCLC): 3170 nM; GI50 (SN12C renal): 1740 nM; TGI (SN12C renal): 3540 nM; GI50 (SF-539 CNS): 1600 nM; TGI (SF-539 CNS): 3060 nM; GI50 (SNB-19 CNS): 1580 nM; TGI (SNB-19 CNS): 2990 nM; GI50 (786-0 renal): 1630 nM; TGI (786-0 renal): 3080 nM; GI50 (SW-620 colon): 1870 nM; TGI (SW-620 colon): 3480 nM; GI50 (HCC-2998 colon): 1680 nM; TGI (HCC-2998 colon): 3100 nM; GI50 (MDA-MB-435): 1740 nM; TGI (MDA-MB-435): 3170 nM; GI50 (HCT-116 colon): 1510 nM; TGI (HCT-116 colon): 2840 nM; GI50 (HCT-15 colon): 1380 nM; TGI (HCT-15 colon): 2840 nM; GI50 (MCF7 breast): 1510 nM; TGI (MCF7 breast): 3040 nM; GI50 (LOX IMVI melanoma): 1540 nM; TGI (LOX IMVI melanoma): 2950 nM; GI50 (T-47D breast): 1520 nM; TGI (T-47D breast): 3320 nM; GI50 (SK-OV-3 ovarian): 17700 nM; TGI (SK-OV-3 ovarian): 32000 nM; GI50 (M14 melanoma): 1840 nM; TGI (M14 melanoma): 3350 nM; GI50 (UACC-257 melanoma): 1900 nM; TGI (UACC-257 melanoma): 3490 nM; GI50 (HOP-92 NSCLC): 1420 nM; TGI (HOP-92 NSCLC): 3090 nM; GI50 (TK-10 renal): 2090 nM; TGI (TK-10 renal): 3870 nM; GI50 (NCI-H460 lung): 1850 nM; TGI (NCI-H460 lung): 3470 nM; GI50 (OVCAR-8 ovarian): 1460 nM; TGI (OVCAR-8 ovarian): 3100 nM; GI50 (HS 578T breast): 1980 nM; TGI (HS 578T breast): 5150 nM; GI50 (SNB-75 CNS): 1560 nM; TGI (SNB-75 CNS): 3130 nM; GI50 (NCI/ADR-RES ovarian): 4330 nM; TGI (NCI/ADR-RES ovarian): > 100000 nM; GI50 (NCI-H226 lung): 11500 nM; TGI (NCI-H226 lung): 31300 nM; GI50 (OVCAR-5 ovarian): 1940 nM; TGI (OVCAR-5 ovarian): 3750 nM; GI50 (SK-MEL-5 melanoma): 1420 nM; TGI (SK-MEL-5 melanoma): 2720 nM; GI50 (U251 CNS): 1530 nM; TGI (U251 CNS): 2990 nM; GI50 (HL-60(TB) leukemia): 319 nM; TGI (HL-60(TB) leukemia): 1480 nM; GI50 (BT-549 breast): 1770 nM; TGI (BT-549 breast): 3200 nM; GI50 (ACHN renal): 1950 nM; TGI (ACHN renal): 4360 nM; GI50 (UO-31 renal): 1870 nM; TGI (UO-31 renal): 4290 nM; GI50 (MDA-MB-231 breast): 1750 nM; TGI (MDA-MB-231 breast): 3480 nM; GI50 (NCI-H522 lung): 1790 nM; TGI (NCI-H522 lung): 3480 nM; GI50 (HOP-62 NSCLC): 1740 nM; TGI (HOP-62 NSCLC): 3240 nM; GI50 (IGROV1 ovarian): 1560 nM; TGI (IGROV1 ovarian): 3130 nM; GI50 (SK-MEL-2 melanoma): 1380 nM; TGI (SK-MEL-2 melanoma): 2780 nM

From PubChem BioAssay (NCI)
